Structures are written as SMILES.

The target of this data set is ABCB1 (Homo sapiens, UniProt P08183). Format: biochemical.
Chain of ABCB1 (P08183 whole entry): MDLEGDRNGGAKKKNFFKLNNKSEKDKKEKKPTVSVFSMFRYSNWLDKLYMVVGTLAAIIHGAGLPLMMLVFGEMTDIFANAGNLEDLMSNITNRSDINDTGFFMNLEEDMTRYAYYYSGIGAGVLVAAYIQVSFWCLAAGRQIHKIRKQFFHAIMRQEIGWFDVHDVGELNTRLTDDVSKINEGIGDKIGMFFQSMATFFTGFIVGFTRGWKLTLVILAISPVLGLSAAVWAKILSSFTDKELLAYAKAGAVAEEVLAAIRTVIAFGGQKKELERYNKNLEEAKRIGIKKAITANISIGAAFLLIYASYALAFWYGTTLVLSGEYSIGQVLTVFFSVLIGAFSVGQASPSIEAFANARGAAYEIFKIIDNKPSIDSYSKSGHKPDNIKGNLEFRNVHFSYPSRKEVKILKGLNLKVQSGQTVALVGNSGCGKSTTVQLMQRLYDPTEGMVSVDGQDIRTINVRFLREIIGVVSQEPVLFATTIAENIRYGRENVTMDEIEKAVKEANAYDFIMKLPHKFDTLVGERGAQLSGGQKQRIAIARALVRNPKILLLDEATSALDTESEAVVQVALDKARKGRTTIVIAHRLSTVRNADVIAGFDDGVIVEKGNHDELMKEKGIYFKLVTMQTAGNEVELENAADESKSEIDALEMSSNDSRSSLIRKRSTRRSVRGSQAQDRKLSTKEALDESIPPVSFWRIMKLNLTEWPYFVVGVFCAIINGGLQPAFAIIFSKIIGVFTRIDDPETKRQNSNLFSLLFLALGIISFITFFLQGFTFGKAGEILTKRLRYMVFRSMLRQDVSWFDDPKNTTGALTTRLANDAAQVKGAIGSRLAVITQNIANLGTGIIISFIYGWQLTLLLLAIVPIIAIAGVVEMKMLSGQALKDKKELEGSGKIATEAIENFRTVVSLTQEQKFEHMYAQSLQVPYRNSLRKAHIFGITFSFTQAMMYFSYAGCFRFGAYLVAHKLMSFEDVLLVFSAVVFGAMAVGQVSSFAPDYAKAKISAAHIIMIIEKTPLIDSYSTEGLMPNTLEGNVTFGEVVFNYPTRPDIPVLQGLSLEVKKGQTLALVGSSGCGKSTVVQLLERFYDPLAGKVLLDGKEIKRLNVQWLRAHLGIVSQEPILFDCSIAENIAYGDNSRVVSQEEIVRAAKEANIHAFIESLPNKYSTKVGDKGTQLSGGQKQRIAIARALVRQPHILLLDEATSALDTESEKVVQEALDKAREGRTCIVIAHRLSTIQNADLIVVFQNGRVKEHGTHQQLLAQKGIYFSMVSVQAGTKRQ

Take `CCN(CC)CCCCNc1ncc2cc(-c3cc(OC)cc(OC)c3)c(NC(=O)NC(C)(C)C)nc2n1` [PD173074]: the “vanadate-sensitive ATPase stimulation in crude membranes of High-five cells expr” value lay within 2.5 to 5 µM.

Source of the values: PMC8366681 (Cancer chemotherapy and pharmacology, 2013).
